Results: patent US8642834B2, “Methods for the identification of agents that inhibit mesenchymal-like tumor cells or their formation” (OSI Pharmaceuticals, LLC, priority 2009, dated 2014)

Tests used:
Type in all cases: cell-based, human
CFPAC1 cells [1] = experiment: 2D immunofluorescence of E-cadherin and vimentin; settings: cells treated 7 days with ligand, compared to untreated cells
Protocol: Cells were plated on coverslips and stimulated with ligand the following day (day 0). On day 4, medium and ligands were refreshed. After 7 days, the cells were fixed in 4% paraformaldehyde (EMS#15701)/PBS (Gibco #14190) for 10 minutes at room temperature, and then permeabilized in 0.1% Triton X-100 (Sigma #P1379)/PBS for 10 minutes. Cells were blocked in 3% BSA/PBS for one hour and incubated in primary antibody solution (E-cadherin, Santa Cruz #sc21791 and Vimentin, Chemicon #AB5733 in blocking buffer) for two hours at room temperature. Cells were washed in PBS and incubated in secondary antibody (Invitrogen #A11029 and Chemicon #AP194R) for one hour followed by nuclear counterstain TO-PRO3 (Invitrogen #T3605). Coverslips were mounted on slides with Pro-Long Gold antifade reagent (Invitrogen P36934). Images were captured on a Leica DMRXE microcope with SP2 scanner using Leica Confocal Software.

CFPAC1 cells [2] = experiment: Doubling time after ligand treatment; settings: after 7 day ligand treatment, versus untreated
Protocol: Cells were plated and treated with ligand for 7 days. On day 7, cells were counted and re-plated on 6 cm cell culture dishes. On days 3, 5, 7, 10 and 12, cells were trypsinized and counted to determine the total number of cells in the dish, in duplicate. Doubling time was calculated using the multiple time point method on the website www.doubling-time.com.

CFPAC-1 cells = experiment: Cell morphology by light microscopy; settings: treated 7 days; versus untreated cells that formed colonies
Protocol: The CFPAC1 cell line was cultured in DMEM media (Gibco #11960) supplemented with 10% FBS (Sigma), 2 mM L Glutamine (Gibco), at 37° C., 5% CO2. For 7 day treatments, cells were seeded on tissue culture plastic in complete growth media and allowed to attach overnight at cell densities that would provide approximately 60-80% confluence at end of experiment. Ligand and/or inhibitor was added the following day (Day 0) in complete growth media and incubated at 37° C., 5% CO2. Ligand source and concentrations used are as follows: [1] From R&D systems, SDF-1α (stromal derived factor-1 alpha) at 100 ng/ml, TRANCE (TNF-related activation induced cytokine) at 50 ng/ml, FGF1 (fibroblast growth factor acidic) at 10 ng/ml, FGF2 (fibroblast growth factor basic) at 10 ng/ml, BMP4 (bone morphogenetic protein 4) at 100 ng/ml, BMP7 (bone morphogenetic protein 7) at 100 ng/ml, IGF2 (insulin-like growth factor 2) at 100 ng/ml, OSM (Oncostatin M) at 100 ng/ml, NRG1 (Neuregulin-1) at 50 ng/ml, PDGFaa (Platelet derived growth factor a) at 50 ng/ml, PDGFbb (platelet derive growth factor b) at 30 ng/ml, Ang2 (Angiopoeitin 2) at 400 ng/ml, amphiregulin at 100 ng/ml, HMGB 1 (Human high-mobility group box 1 protein) at 50 ng/ml; [2] […]

CFPAC1 cells [3] = experiment: Transcriptional changes to EMT genes, qPCR
Protocol: The CFPAC1 cell line was cultured in DMEM media (Gibco #11960) supplemented with 10% FBS (Sigma), 2 mM L Glutamine (Gibco), at 37° C., 5% CO2. For 7 day treatments, cells were seeded on tissue culture plastic in complete growth media and allowed to attach overnight at cell densities that would provide approximately 60-80% confluence at end of experiment. Ligand and/or inhibitor was added the following day (Day 0) in complete growth media and incubated at 37° C., 5% CO2. Ligand source and concentrations used are as follows: [1] From R&D systems, SDF-1α (stromal derived factor-1 alpha) at 100 ng/ml, TRANCE (TNF-related activation induced cytokine) at 50 ng/ml, FGF1 (fibroblast growth factor acidic) at 10 ng/ml, FGF2 (fibroblast growth factor basic) at 10 ng/ml, BMP4 (bone morphogenetic protein 4) at 100 ng/ml, BMP7 (bone morphogenetic protein 7) at 100 ng/ml, IGF2 (insulin-like growth factor 2) at 100 ng/ml, OSM (Oncostatin M) at 100 ng/ml, NRG1 (Neuregulin-1) at 50 ng/ml, PDGFaa (Platelet derived growth factor a) at 50 ng/ml, PDGFbb (platelet derive growth factor b) at 30 ng/ml, Ang2 (Angiopoeitin 2) at 400 ng/ml, amphiregulin at 100 ng/ml, HMGB 1 (Human high-mobility group box 1 protein) at 50 ng/ml; [2] From Genscript, LIF (Leukemia inhibitory factor) at 20 ng/ml, GM-CSF (Granulocyte macrophage colony stimulating factor) at 25 ng/ml, M-CSF (Macrophage colony stimulating factor) at 50 ng/ml; [3] From Anaspec, PAR1 (Protease activated receptor 1 agonist) at 100 μM; PAR2 (Protease activated receptor 2 agonist; peptide SLIGKV-NH2, Cat. No. 60217-1) at 100 μM; PAR4 (Protease activated receptor […] agonist; peptide AYPGKF-NH2, Cat. No. 60218-1) at 100 μM; [4] From Peprotech, HGF (Hepatocyte Growth Factor) at 100 ng/ml; IL-31 (Interleukin-31) at 50 ng/ml, IL-33 (Interleukin-33) at 50 ng/ml, IL1-a (Interleukin-1 alpha) at 10 ng/ml, CTGF (Connective tissue growth factor) at 20 ng/ml, WISP1 (Wnt-1 inducible signaling pathway protein) at 20 ng/ml, PTHrP ([…] hormone-related protein) at 50 ng/ml, MCP1 (monocyte chemotactic protein-1) at 50 ng/ml; and [5] from Sigma, Fulvestrant at 1 μM. Fresh medium containing ligand and/or inhibitor was added 3-4 days after initial dose, and at Day 7 cells were harvested for western blot analysis.
Cells were plated and treated with ligand for one or 7 days. At the time of harvest, cells were trypsinized and snap frozen for later use. Total RNA was isolated using RNAqueous-4 PCR Kit (Ambion, AM1914). For qPCR on tumor material, the tumor samples were homogenized using a small tissue homogenizer (Ultra-Turrax T8 from IKA-Werke) in 175ul RNA lysis buffer. Homogenization was for 1 minute on ice. RNA was isolated using the SV Total RNA Isolation System (Promega Cat #Z3100) according to the manufactures instructions. Samples were DNase treated using the Turbo DNA-Free kit (Ambion, AM1907) and reverse transcribed using Superscript III (Invitrogen, 18080-044) for qPCR analysis. Taqman primers and Locked-Nucleic Acid probes were designed using ProbeFinder software (Universal Probe library, Roche). For mRNA analysis, real time PCR was performed using the ABI 7900HT series PCR machine. Thermocycle conditions were as follows: 50° C. for 2 minutes, 95° C. for 10 minutes, 95° C. for 15 seconds, 50° C. for 10 seconds, 60° C. for 1 minute. Data was collected over 45 cycles and then normalized to GAPDH and further normalized to the untreated control sample.

“HGF: Hepatocyte Growth Factor from Peprotech, used at 100 ng/ml” was tested, and the “E-cadherin and vimentin staining” value (CFPAC1 cells [1]) was “strong vimentin staining with no E-cadherin”, the “Effect on doubling time” value (CFPAC1 cells [2]) was “did not increase the doubling time” and the Cell morphology (CFPAC-1 cells) was “less compact with more elongated cell morphology”. For the same substance, the “ACTN1 mRNA fold change” value (CFPAC1 cells [3]; ligand 1 Day) was “NC (Only changes greater than 3 fold are reported. NC indicates no change.)”, the “CDH1 mRNA fold change” value (CFPAC1 cells [3]; ligand 1 Day) was “NC (Only changes greater than 3 fold are reported. NC indicates no change.)” and the “CDH2 mRNA fold change” value (CFPAC1 cells [3]; ligand 1 Day) was “NC (Only changes greater than 3 fold are reported. NC indicates no change.)”. The “ITGB3 mRNA fold change” value (CFPAC1 cells [3]; ligand 1 Day) was “NC (Only changes greater than 3 fold are reported. NC indicates no change.)”, the “MMP7 mRNA fold change” value (CFPAC1 cells [3]; ligand 1 Day) was “NC (Only changes greater than 3 fold are reported. NC indicates no change.)” and the “MTA3 mRNA fold change” value (CFPAC1 cells [3]; ligand 1 Day) was “NC (Only changes greater than 3 fold are reported. NC indicates no change.)”. The “PLAUR mRNA fold change” value (CFPAC1 cells [3]; ligand 1 Day) was “NC (Only changes greater than 3 fold are reported. NC indicates no change.)”, the “SNAI1 mRNA fold change” value (CFPAC1 cells [3]; ligand 1 Day) was “NC (Only changes greater than 3 fold are reported. NC indicates no change.)” and the “SNAI2 mRNA fold change” value (CFPAC1 cells [3]; ligand 1 Day) was “NC (Only changes greater than 3 fold are reported. NC indicates no change.)”. The “SPARC mRNA fold change” value (CFPAC1 cells [3]; ligand 1 Day) was “NC (Only changes greater than 3 fold are reported. NC indicates no change.)”, the “TWIST1 mRNA fold change” value (CFPAC1 cells [3]; ligand 1 Day) was “NC (Only changes greater than 3 fold are reported. NC indicates no change.)” and the “VIM mRNA fold change” value (CFPAC1 cells [3]; ligand 1 Day) was “NC (Only changes greater than 3 fold are reported. NC indicates no change.)”. For the same substance, the “ZEB1 mRNA fold change” value (CFPAC1 cells [3]; ligand 1 Day) was “NC (Only changes greater than 3 fold are reported. NC indicates no change.)”, the “ZEB2 mRNA fold change” value (CFPAC1 cells [3]; ligand 1 Day) was “NC (Only changes greater than 3 fold are reported. NC indicates no change.)” and the “ACTN1 mRNA fold change” value (CFPAC1 cells [3]; ligand 7 Day) was “NC (Only changes greater than 3 fold are reported. NC indicates no change.)”. For the same substance, the “CDH1 mRNA fold change” value (CFPAC1 cells [3]; ligand 7 Day) was “NC (Only changes greater than 3 fold are reported. NC indicates no change.)”, the “CDH2 mRNA fold change” value (CFPAC1 cells [3]; ligand 7 Day) was “NC (Only changes greater than 3 fold are reported. NC indicates no change.)” and the “ITGB3 mRNA fold change” value (CFPAC1 cells [3]; ligand 7 Day) was 3.57 fold. The “MMP7 mRNA fold change” value (CFPAC1 cells [3]; ligand 7 Day) was “NC (Only changes greater than 3 fold are reported. NC indicates no change.)”, the “MTA3 mRNA fold change” value (CFPAC1 cells [3]; ligand 7 Day) was “NC (Only changes greater than 3 fold are reported. NC indicates no change.)” and the “PLAUR mRNA fold change” value (CFPAC1 cells [3]; ligand 7 Day) was “NC (Only changes greater than 3 fold are reported. NC indicates no change.)”. The “SNAI1 mRNA fold change” value (CFPAC1 cells [3]; ligand 7 Day) was “NC (Only changes greater than 3 fold are reported. NC indicates no change.)”, the “SNAI2 mRNA fold change” value (CFPAC1 cells [3]; ligand 7 Day) was “NC (Only changes greater than 3 fold are reported. NC indicates no change.)” and the “SPARC mRNA fold change” value (CFPAC1 cells [3]; ligand 7 Day) was −5.41 fold. The “TWIST1 mRNA fold change” value (CFPAC1 cells [3]; ligand 7 Day) was 612 fold, the “VIM mRNA fold change” value (CFPAC1 cells [3]; ligand 7 Day) was “NC (Only changes greater than 3 fold are reported. NC indicates no change.)” and the “ZEB1 mRNA fold change” value (CFPAC1 cells [3]; ligand 7 Day) was “NC (Only changes greater than 3 fold are reported. NC indicates no change.)”. The “ZEB2 mRNA fold change” value (CFPAC1 cells [3]; ligand 7 Day) was “NC (Only changes greater than 3 fold are reported. NC indicates no change.)”.
